Test results as given in US20090215805A1, “4-Heteroaryl Pyrimidine Derivatives and use thereof as Protein Kinase Inhibitors” (Cyclacel Limited, priority 2005, published 2009).

Key:
DM Aur A (Dm AK-A) = DM Aur A (Dm AK-A) (Drosophila melanogaster, UniProt Q9VGF9); test: Dm aurora A kinase assay (DM Aur A / Dm AK-A); format: biochemical; details: for Ki: in vitro kinase assay; for IC50: values without asterisk (DM aurora A)
Method: (§1) The compounds of the invention above were investigated for their ability to inhibit the enzymatic activity of various protein kinases. This was achieved by measurement of incorporation of radioactive phosphate from ATP into appropriate polypeptide substrates. Recombinant protein kinases and kinase complexes were produced or obtained commercially. Assays were performed using 96-well plates and appropriate assay buffers (typically 25 mM β-glycerophosphate, 20 mM MOPS, 5 mM EGTA, 1 mM DTT, 1 mM […], pH 7.4), into which were added 2-4 μg of active enzyme with appropriate substrates. The reactions were initiated by addition of Mg/ATP mix (15 mM MgCl2+100 μM ATP with 30-50 kBq per well of [γ-^32P]-ATP) and mixtures incubated as required at 30° C. Reactions were stopped on ice, followed by filtration through p81 filterplates or GF/C filterplates (Whatman Polyfiltronics, Kent, UK). After washing 3 times with 75 mM aq orthophosphoric acid, plates were dried, scintillant added and incorporated radioactivity measured in a scintillation counter (TopCount, Packard Instruments, Pangbourne, Berks, UK). Compounds for kinase assay were made up as 10 mM stocks in DMSO and diluted into 10% DMSO in assay buffer. Data was analysed using curve-fitting software (GraphPad Prism version 3.00 for Windows, GraphPad Software, San Diego Calif. USA) to determine IC50 values (concentration of test compound which inhibits kinase activity by 50%).

CDK2/E = CDK2/E (Homo sapiens, UniProt P24941); test: CDK2/E in vitro kinase assay; format: biochemical
Method: as §1

GSK3 (GSK-3β) = GSK3 (GSK-3β) (Oryctolagus cuniculus, UniProt A0A5F9DUX8); test: GSK-3 kinase assay; format: biochemical, rabbit; details: in vitro kinase assay
Method: GSK-3 was obtained from New England Biolabs (UK) Ltd., Hitchin, Herts. The recombinant enzyme was isolated from a strain of E. coli that carries a clone expressing GSK-3β derived from a rabbit skeletal muscle cDNA library [Wang, Q. M.; Fiol, C. J.; DePaoli-Roach, A. A.; Roach, P. J. J. Biol. Chem., 1994, 269, 14566]. Inhibition of GSK-3 function was assessed by measurement of phosphorylation of CREB phosphopeptide KRREILSRRPphosphoSYR in the presence of test compounds. Using a 96-well assay format, GSK3 (7.5 U) was incubated for 30 min at 30° C. in a total volume of 25 μL in 20 mM MOPS pH 7.2, 25 mM β-glycerophosphate, 5 mM EGTA, 1 mM DTT, 1 mM […], 40 μM CREB peptide, 15 mM MgCl2 and 100 μM ATP (containing 0.25 μCi [γ-^32P]-ATP) in the presence of varying concentrations of test compound. The samples were transferred to 96-well p81 filter plates (Whatman Polyfiltronics, Kent, UK), and the plates were washed 4 times with 200 μL/well of 75 mM aq orthophosphoric acid. Scintillation liquid (50 μL) was added to each well, and incorporated radioactivity for each sample was determined using a scintillation counter (TopCount, Packard Instruments, Pangboume, Berks, UK).

Human aurora kinase A = molecular target: T1, Human aurora kinase A (Homo sapiens, UniProt O14965); test: Aurora-A (human) kinase assay; format: biochemical; details: values marked *: Human aurora kinase A; read-out: Aur A IC50 (*Human aurora kinase A)
T1 construct: purchased Upstate, Dundee, UK
T1 sequence (O14965 1-403): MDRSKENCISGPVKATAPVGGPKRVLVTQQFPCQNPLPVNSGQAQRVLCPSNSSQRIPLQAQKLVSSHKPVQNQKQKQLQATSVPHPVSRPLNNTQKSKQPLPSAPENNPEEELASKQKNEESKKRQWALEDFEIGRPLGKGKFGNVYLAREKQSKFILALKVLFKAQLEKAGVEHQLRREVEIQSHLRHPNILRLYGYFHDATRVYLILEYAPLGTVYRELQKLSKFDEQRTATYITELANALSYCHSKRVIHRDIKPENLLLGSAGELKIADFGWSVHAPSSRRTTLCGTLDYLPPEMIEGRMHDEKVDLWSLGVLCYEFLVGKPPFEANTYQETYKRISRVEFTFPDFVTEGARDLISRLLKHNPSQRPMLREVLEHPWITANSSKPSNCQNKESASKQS
Method: This was achieved by measurement of incorporation of radioactive phosphate from ATP into Kemptide substrate (LRRASLG), upon phosphorylation by commercially obtained aurora-A (human, Upstate, Dundee, UK). Assays were performed using 96-well plates and appropriate assay buffers (20 mM Tris, 25 mM β-glycerophosphate, 5 mM EGTA, 1 mM DTT, 1 mM sodium vanadate, pH 7.5), into which were added 2-5 ng of active enzyme with 500 μM substrate (Kemptide). The reactions were initiated by addition of MgATP mix (15 mM MgCl2+100 μM ATP with 15-25 kBq per well of [γ-^32P]-ATP) and mixtures incubated for 30 min at 30° C. Reactions were stopped by addition of an equal volume of 75 mM aq orthophosphoric acid, followed by filtration through p81 filterplates (Whatman Polyfiltronics, Kent, UK). After washing 4 times with 75 mM aq orthophosphoric acid, plates were dried, scintillant added and incorporated radioactivity measured in a scintillation counter (TopCount, Packard Instruments, Pangbourne, Berks, UK). Compounds for kinase assay were made up as 10 mM stocks in DMSO and diluted into 10% DMSO in assay buffer. Data was analysed using curve-fitting software (XLfit version 4.0.2, IDBS, Guildford, Surrey, UK) to determine IC50 values (concentration of test compound which inhibits kinase activity by 50%).

Sequence of DM Aur A (Dm AK-A) (Q9VGF9 entry or part of it): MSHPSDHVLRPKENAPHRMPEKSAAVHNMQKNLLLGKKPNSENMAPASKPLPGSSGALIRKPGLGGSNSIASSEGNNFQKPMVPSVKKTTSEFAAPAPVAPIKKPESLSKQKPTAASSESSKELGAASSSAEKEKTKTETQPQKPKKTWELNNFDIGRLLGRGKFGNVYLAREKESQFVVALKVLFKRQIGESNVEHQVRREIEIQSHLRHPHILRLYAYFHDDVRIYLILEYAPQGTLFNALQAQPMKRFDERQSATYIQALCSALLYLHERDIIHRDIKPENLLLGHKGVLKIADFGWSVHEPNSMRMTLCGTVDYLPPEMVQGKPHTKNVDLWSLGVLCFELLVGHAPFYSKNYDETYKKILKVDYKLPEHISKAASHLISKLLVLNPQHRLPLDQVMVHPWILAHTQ
Sequence of GSK3 (GSK-3β) (A0A5F9DUX8 entry or part of it): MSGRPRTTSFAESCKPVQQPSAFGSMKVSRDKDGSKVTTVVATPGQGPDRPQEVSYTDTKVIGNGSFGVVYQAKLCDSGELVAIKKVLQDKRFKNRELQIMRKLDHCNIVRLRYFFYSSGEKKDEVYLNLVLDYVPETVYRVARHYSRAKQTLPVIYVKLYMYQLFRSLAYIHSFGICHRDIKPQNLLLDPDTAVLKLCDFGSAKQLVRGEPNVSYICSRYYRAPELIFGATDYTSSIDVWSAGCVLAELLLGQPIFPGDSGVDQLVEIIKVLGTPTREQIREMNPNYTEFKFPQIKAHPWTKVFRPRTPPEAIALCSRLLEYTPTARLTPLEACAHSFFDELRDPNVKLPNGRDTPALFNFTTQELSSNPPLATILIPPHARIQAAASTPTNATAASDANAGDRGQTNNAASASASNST

| SMILES | Ki (DM Aur A (Dm AK-A)) [nM] | IC50 (DM Aur A (Dm AK-A)) [nM] | melting point [°C] | Ki (CDK2/E) [nM] | Ki (GSK3 (GSK-3β)) [nM] | IC50 (Human aurora kinase A) [nM] |
| --- | --- | --- | --- | --- | --- | --- |
| CCOC(=O)c1[nH]c(C)c(-c2ccnc(Nc3ccc(C(F)(F)F)cc3)n2)c1-c1ccccc1 [Compound 10] | > 10000 | ≥ 10000 | 227 to 230 |  |  |  |
| CCOC(=O)c1[nH]c(C)c(-c2ccnc(Nc3cc(OC)c(OC)c(OC)c3)n2)c1C [Compound 58] |  |  |  | 4700 |  |  |
| Cc1[nH]cc(-c2ccccc2)c1-c1ccnc(Nc2ccc(F)cc2)n1 [Compound 16] |  |  | 196.6 to 198.1 |  | 45 |  |
| CCOC(=O)c1[nH]c(C)c(-c2ccnc(Nc3cccc(F)c3)n2)c1-c1ccccc1 [Compound 8] | > 10000 | ≥ 10000 | 200 to 203 |  |  |  |
| COc1cc(Nc2nccc(-c3c(C)c(C#N)n(C)c3C)n2)cc(OC)c1OC [Compound 53] |  |  |  | 1120 |  | 125 |
| CNc1ccc(Nc2nccc(-c3c(C)[nH]c(C#N)c3C)n2)cc1C(F)(F)F [Compound 31] | 49 | 125 |  | 119 | 53 |  |
| Cc1c[nH]c(C)c1-c1ccnc(Nc2ccc(C#N)cc2)n1 [Compound 1] | > 10000 | ≥ 10000 |  |  | 601 |  |
| Cc1ccc([N+](=O)[O-])cc1Nc1nccc(-c2c(C)[nH]c(C#N)c2C)n1 [Compound 27] | > 10000 | ≥ 10000 |  | > 10000 | 375 |  |
| Cc1cn(C)c(C)c1-c1ccnc(Nc2ccc(N3CCOCC3)c(Cl)c2)n1 [Compound 49] |  |  |  |  |  | 531 |
| CCN(CC)CCNS(=O)(=O)c1ccc(Nc2nccc(-c3c(C)[nH]c(C#N)c3C)n2)cc1 [Compound 36] | 307 | 786 |  | 12 | 14 |  |
| COc1ccc(Nc2nccc(-c3c(C)c[nH]c3C)n2)cn1 [Compound 26] |  |  |  | 861 | 167 |  |
| Cc1c(-c2ccnc(Nc3ccc(N(C)C)cc3)n2)c(C)n(C)c1C#N [Compound 20] |  |  |  | 538 | 11 |  |
| Cc1c[nH]c(C)c1-c1ccnc(Nc2cc(Cl)c(N3CCOCC3)c(Cl)c2)n1 [Compound 45] |  |  |  |  |  | > 10000 |
| CCOC(=O)c1[nH]c(C)c(-c2ccnc(Nc3ccc(N4CCOCC4)c(OC)c3)n2)c1C [Compound 54] |  |  |  | > 10000 |  | 91 |
| Cc1cc(N2CCOCC2)ccc1Nc1nccc(-c2c(C)c[nH]c2C)n1 [Compound 50] |  |  |  |  |  | > 10000 |
| COc1cc(Nc2nccc(-c3c(C)cn(C)c3C)n2)cc(OC)c1OC [Compound 57] |  |  |  | > 10000 |  |  |
| Cc1[nH]c(CN(C)C)c(C)c1-c1ccnc(Nc2cccc([N+](=O)[O-])c2)n1 [Compound 17] | 40 | 102 | 88.3 to 92.6 | 33 | 3270 |  |
| CCOC(=O)c1[nH]c(C)c(-c2ccnc(Nc3ccc(N4CCOCC4)c(Cl)c3)n2)c1C [Compound 46] |  |  |  |  |  | 3030 |
| CCOC(=O)c1[nH]c(C)c(-c2ccnc(Nc3ccc(O)c([N+](=O)[O-])c3)n2)c1-c1ccccc1 [Compound 11] | 278 | 712 | 202 to 205 |  |  |  |
| CC(=O)N1CCN(c2ccc(Nc3nccc(-c4c(C)c(C#N)n(C)c4C)n3)cn2)CC1 [Compound 39] | 91 | 234 |  |  |  |  |

| SMILES | Ki (DM Aur A (Dm AK-A)) [nM] | IC50 (DM Aur A (Dm AK-A)) [nM] | melting point [°C] | Ki (CDK2/E) [nM] | Ki (GSK3 (GSK-3β)) [nM] | IC50 (Human aurora kinase A) [nM] |
| --- | --- | --- | --- | --- | --- | --- |
| Cc1cn(C)c(C)c1-c1ccnc(Nc2ccc(N3CCOCC3)cc2)n1 [Compound 48] |  |  |  |  |  | 222 |
| Cc1[nH]cc(-c2ccccc2)c1-c1ccnc(Nc2ccc(O)cc2)n1 [Compound 15] | 602 | 1540 | 194.1 to 195.6 |  | 133 |  |
| COCCOC(=O)c1[nH]c(C)c(-c2ccnc(Nc3ccc(N4CCOCC4)cc3)n2)c1-c1ccccc1 [Compound 37] | 333 | 853 |  |  |  |  |
| Cc1cc(Nc2nccc(-c3c(C)[nH]c(C#N)c3C)n2)cnc1Cl [Compound 33] | 666 | 1700 |  |  | 7 |  |
| COc1cc(Nc2nccc(-c3c(C)c[nH]c3C)n2)cc(OC)c1OC [Compound 56] |  |  |  | > 10000 |  |  |
| CCOC(=O)c1[nH]c(C)c(-c2ccnc(Nc3ccc(N4CCOCC4)cc3)n2)c1C [Compound 43] | 103 | 265 |  |  |  |  |
| Cc1c[nH]c(C)c1-c1ccnc(Nc2ccc(N3CC(C)OC(C)C3)cc2)n1 (centres unmarked) [Compound 51] |  |  |  |  |  | 230 |
| Cc1c[nH]c(C)c1-c1ccnc(Nc2cccc(C#N)c2)n1 [Compound 2] | > 10000 | ≥ 10000 |  |  | 3690 |  |
| Cc1[nH]c(C#N)c(C)c1-c1ccnc(Nc2cccc(S(=O)(=O)NC(C)C)c2)n1 [Compound 34] | 1300 | 3320 |  | 876 | 5 |  |
| CCOC(=O)c1[nH]c(C)c(-c2ccnc(Nc3cccc(O)c3)n2)c1-c1ccccc1 [Compound 7] | 423 |  | 123.1 to 124.2 |  |  |  |
| Cc1c[nH]c(C)c1-c1ccnc(Nc2ccc(N3CCOCC3)c(Cl)c2)n1 [Compound 44] |  |  |  |  |  | 261 |
| Cc1[nH]c(C#N)c(C)c1-c1ccnc(Nc2ccc(N3CCN(Cc4ccccc4)CC3)cc2)n1 [Compound 40] | 108 | 276 |  |  |  |  |
| CC(=O)N1CCN(c2ccc(Nc3nccc(-c4c(C)[nH]c(C#N)c4C)n3)cn2)CC1 [Compound 38] | 69 | 177 |  | 310 |  |  |
| Cc1[nH]cc(-c2ccccc2)c1-c1ccnc(Nc2cccc([N+](=O)[O-])c2)n1 [Compound 13] | 335 | 859 | 201 to 203 |  | 208 |  |
| CCOC(=O)c1[nH]c(C)c(-c2ccnc(Nc3cc(Cl)c(N4CCOCC4)c(Cl)c3)n2)c1C [Compound 47] |  |  |  |  |  | > 10000 |
| CC(=O)N1CCN(c2ccc(Nc3nccc(-c4c(C)[nH]c(C#N)c4C)n3)cc2)CC1 [Compound 41] | 19 | 48 |  | 308 |  |  |
| COc1cc(Nc2nccc(-c3c(C)[nH]c(C#N)c3C)n2)cc(OC)c1OC [Compound 52] |  |  |  | 759 |  | 168 |
| Cc1c[nH]c(C)c1-c1ccnc(Nc2ccc(N3CCOCC3)cc2)n1 [Compound 4] | 8 | 72 |  | 1810 |  |  |
| COc1ccc(C)c(Nc2nccc(-c3c(C)[nH]c(C#N)c3C)n2)c1 [Compound 29] | 2520 | 6470 |  | > 10000 | 731 |  |
| Cc1[nH]c(C#N)c(C)c1-c1ccnc(Nc2ccc(N3CCOCC3)cc2)n1 [Compound 24] |  |  |  | 574 | 127 |  |
